Measurements published in patent publication US20240336591A1, “ORGANIC PYRIDINE-PYRAZOLE COMPOUNDS AND THEIR USES” (priority 2021, published 2024).
Entries after “also recorded” stand apart in the source; their conditions may differ.

Tests used:
[1] = tested on: inflamed colonic mucosa from pharmacotherapy treatment-refractory ulcerative colitis patients; assay: Ex-vivo culture of inflamed colon tissue from surgical resection of treatment-refractory UC patients, TNFα release (Protocol 2); format: cell-based, human; settings: 1 μM; UC donors 4 and 5; with SEB; about 18 hours; vs DMSO vehicle
other PDE family members = settings: read-out: IC50s for other PDE family members; literature value; cited from earlier work
[2] = tested on: inflamed colonic mucosa from ulcerative colitis patients; assay: Ex-vivo colon biopsy culture from ulcerative colitis patients, cytokine release (Protocol 1); format: cell-based, human; settings: UC donors 1 and 2; PF-02545920 0.1 μM and 1 μM, TAK-063 1 uM; 24 h; vs DMSO vehicle
Protocol: The effect of selective PDE10A inhibition was tested on inflamed colonic mucosa from ulcerative colitis patients taken during routine endoscopy (Protocol 1 detailed below). These samples retain a disease phenotype in ex-vivo culture, secrete high basal levels of inflammatory cytokines, and represent a highly relevant and translational disease model. The effect of the PDE10A inhibitors on levels of the inflammatory cytokines IL-6 and IL-8 released from these tissue samples were measured. Both IL-6 and IL-8 are key regulators in ulcerative colitis pathology and their levels correlate with disease severity (Waldner M J et al. Master regulator of intestinal disease: IL-6 in chronic inflammation and cancer development. Semin Immunol. 26(1), 75-9 (2014); Bernardo D et al. IL-6 promotes immune responses in human ulcerative colitis and induces a skin-homing phenotype in the dendritic cells and T-cells they stimulate. Eur J Immunol. 42(5), 1337-53 (2012); Pearl D S, Cytokine mucosal expression in ulcerative colitis, the relationship between cytokine release and disease activity. J Crohns Colitis. 7(6), 481-9 (2013)).
These colon biopsies retain an inflammatory phenotype and secrete high levels of inflammatory cytokines in ex-vivo culture.
(§1) Biopsy tissue was obtained from inflamed colonic mucosa from ulcerative colitis or Crohn's disease patients during routine endoscopy. Ex-vivo biopsy cultures for the analysis of inflammatory cytokine biomarkers were run as previously described (Vossenkämper A. et al. A CD3- specific antibody reduces cytokine production and alters phosphoprotein profiles in intestinal tissues from patients with inflammatory bowel disease. Gastroenterology, 147, 172-183 (2014)). Biopsies were incubated in organ culture for 24 h with the addition of positive control compounds, or specific PDE10A inhibitors. Supernatants collected at the end of the experiment were snap-frozen and stored at −70° C. For the measurement of cytokines, the frozen culture supernatants were thawed and analysed for levels of the inflammatory cytokines using Luminex cytokine assay kits (R&D Systems) and an R&D Systems MAGPIX® analyser. Mean values ±SDs were calculated for the levels of spontaneous cytokine production measured in biopsy culture supernatants from each treatment group.

[3] = tested on: isolated human neutrophil; assay: In vitro assay of IL-8 neutrophil activation; format: cell-based
[4] = tested on: inflamed colonic mucosa from Crohn's Disease patients; assay: Ex-vivo colon biopsy culture from Crohn's disease patients, cytokine release (Protocol 1); format: cell-based, human; settings: 0.1 uM; 2 independent CD patient biopsies; vs DMSO vehicle; listed as PF-2545920
Protocol: In addition, we tested the effect of selective PDE10A inhibition using 0.1 uM PF-2545920 on inflamed colonic mucosa from Crohn's Disease patients taken during routine endoscopy (Protocol 1).
as §1

Row | SMILES | secreted levels of TNFα [1] | IC50 (other PDE family members) | secreted levels of IL-6 [2] | secreted levels of IL-8 [2] | IL-8 induced neutrophil activation [3] | secreted levels of IL-6 [4] | secreted levels of IL-8 [4]
1 | Cn1cc(-c2ccncc2)c(-c2ccc(OCc3ccc4ccccc4n3)cc2)n1 [PF-02545920] | inhibiting; also recorded: significantly reduced | > 1000 nM | inhibiting; also recorded: significantly reduced | inhibiting; also recorded: significantly reduced | dose dependently inhibited | inhibits; also recorded: significantly reduced | inhibits; also recorded: significantly reduced
2 | COc1cn(-c2ccc(-n3cccn3)cc2F)nc(-c2ccnn2-c2ccccc2)c1=O [TAK-063, 1-[2-fluoro-4-(1H-pyrazol-1-yl)phenyl]-5-methoxy-3-(1-phenyl-1H-pyrazol-5-yl)pyridazin-4(1H)-one, reference compound] | – | > 5000 nM | inhibiting; also recorded: significantly reduced | inhibiting; also recorded: significantly reduced | – | – | –
